Consider 4 substances from paper PMC2800189, “β-Neurexin Is a Ligand for the Staphylococcus aureus MSCRAMM SdrC” (PLoS Pathogens, 2010).

Test [1] deals with Nrx_(47-255)-GST, recombinant neurexin 1β fragment (human) (UniProt P58400). Briefly: ELISA; solid phase binding assay: 1 µg/well Nrx-GST protein or GST coated on Immulon 4BH plates, increasing concentrations of SdrC protein, 1 hour at room temperature, detected with anti-SdrC_(N2N3) serum; apparent KD (concentration for half maximum binding). A general note: An ELISA detects its analyte on a solid surface through an enzyme-linked reagent.
Sequence of Nrx_(47-255)-GST, recombinant neurexin 1β fragment (human) (P58400 47-255): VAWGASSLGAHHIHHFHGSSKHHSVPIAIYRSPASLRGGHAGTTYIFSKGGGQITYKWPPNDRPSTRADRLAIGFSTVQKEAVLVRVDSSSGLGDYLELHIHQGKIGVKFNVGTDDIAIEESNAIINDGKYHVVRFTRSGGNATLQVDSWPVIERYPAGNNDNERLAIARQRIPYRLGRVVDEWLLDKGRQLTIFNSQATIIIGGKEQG

Test [2] addresses fluorescein-labeled spNrxwt (human). The test can be described thus: fluorescence polarisation; increasing concentrations of MSCRAMM with 10 nM fluorescein-labelled peptide, 3 hours at room temperature in the dark; one-site fit. For orientation: In fluorescence polarisation assays a small probe gives low polarisation when free and higher when bound to something large.
A short description of test [3]: Phage display panning with immobilized SdrGN2N3 or BSA, total bound TUs. The class given is binding. The conditions noted are these: input phage 1.5×10^11, 1 µg/well. An excerpt:
Analysis of peptides or protein segments displaced on the surface of phage is a useful method to identify partners in protein-protein interaction systems,[17],[18],[19]. To determine if this method can be used to identify ligands for MSCRAMMs from Gram-positive bacteria, we performed a validation experiment using SdrGN2N3 as bait in a screen of a commercially available 12-mer linear library (New England Biolabs Ph.D.-12 Phage Display Peptide Library). We carried out three successive rounds of panning against immobilized SdrGN2N3. To confirm that the enrichment of the phage clones between panning rounds was the result of specific interactions, the phage pool before and after each step of amplification was also tested for binding to BSA. […] We then sequenced the DNA purified from ten phage plaques obtained after the third round of panning.
NEB Ph.D.12-mer random library was incubated with immobilized SdrC N2N3, SdrG N2N3 or BSA at 1 µg/well. The input was 1.5×10^11 transducing units with a complexity of 2.7×10^9 electroporated sequences. The assay was performed according to the manufacturer's instructions. The output phage plaques were 10^4 transducing units. Wells were washed with 0.5% Tween in TBS buffer, blocked with 10% BSA and incubated with 1×10^8 transducing units of each amplified phage or insertless phage (fd-tet). To remove unbound phage, wells were washed 10 times with 0.5% Tween in TBS. Bound phage was detected with anti-M13-HRP antibody (GE Healthcare, Buckinghamshire, UK).

For test [4], the system named is SdrCN2N3 - Nrx47-255 interaction. Briefly: Peptide inhibition of SdrCN2N3 binding to immobilized Nrx47-255. More on the design: species or system S. aureus (SdrC). The conditions noted are these: 0.5 µM SdrCN2N3 with increasing peptide, 2 hours, room temperature, then on immobilized Nrx47-255; mean±SD of triplicates from three experiments. How it is done: Figure 3 Structural organization of β-neurexins. (A) A cartoon representation of β-neurexin domain structure. S, signal sequence; NL, neuroligin-binding domain; Glyc, glycosylation domain; TM, transmembrane domain; PDZ, intracellular signaling domain. Also shown, are the recombinant proteins used in this study. (B) Coomassie-stained SDS-PAGE gel of GST-tagged neurexin 1β domains recombinant proteins. Increasing concentrations of SdrCA (C) and SdrCN2N3 (D) were incubated with immobilized Nrx47-255 (black square), Nrx70–255 (black triangle) or GST (black circle) for 1 hour at room temperature. […] (E) SdrC178–496 (0.5 µM) was incubated with increasing concentrations of spNrxwt peptide (black square) or spNrxscr peptide (black triangle) at room temperature. After 2 hours, the mixture was incubated with immobilized Nrx47–255. […]
Each well of Immulon 4BH plates was coated with 1 µg of recombinant Nrx47–255-GST, Nrx70–255-GSTor GST overnight at 4°C. […] Bound protein was detected with a polyclonal antibody (1∶3000) against SdrCN2N3 (H.T.I. BioProducts) followed by an anti-rabbit HRP-labeled antibody (1∶5000) (Bio-Rad Labs, Hercules, CA). Color development was performed using SigmaFast OPD (Sigma, St. Louis, MO) and the binding was measured using a microtiter plate reader (Molecular Devices) at 450 nm. […] The binding was analyzed by non-linear regression for one binding site (GraphPad Prism).

Test [5] has as its target T1, SdrCN2N3 (Staphylococcus aureus, UniProt O86487).
T1 construct: Increasing concentrations of SdrC178-496 were incubated with 10 nM labeled peptide; His tag (N); made in house; host or cells: E. coli Topp 3
It is filed as binding, S. aureus. The conditions noted are these: 10 nM fluorescein-labeled peptide, 3 hours, room temperature, dark.
Protocol: We used fluorescence polarization to determine the dissociation constant for the SdrCN2N3-Nrx1β peptide interaction. spNrxwt and spNrxscr were labeled with fluorescein and incubated with increasing concentrations of recombinant MSCRAMM.
Increasing concentrations of SdrCN2N3 or ClfBN2N3 (black circle) were incubated with 10 nM fluorescein-labelled spNrxwt peptide (black square) or spNrxscr peptide (black triangle) for 3 hours at room temperature in the dark. Equation ΔP = ΔPmax [protein]/(KD+[protein]) was used to calculate the equilibrium constant. […] After 3 hours, the mixture was incubated for another 3 hours at room temperature in the dark with 10 nM fluorescein labeled spNrxwt peptide. Fluorescence polarization was determined as described above. […]
Increasing concentrations of SdrC178-496 were incubated with 10 nM labeled peptide for 3 hours in the dark at room temperature. Polarization was measured using Luminescence Spectrometer LB50B (Perkin Elmer). The data were analyzed by non-linear regression for one binding site. The equilibrium dissociation constant was calculated using the equation ΔP = ΔPmax x [protein])/(KD + [protein]) (Eq.1) where ΔP is the change in fluorescence polarization, ΔPmax is the maximum change in fluorescence polarization and KD is the equilibrium dissociation constant of the interaction.

Test [6] has as its target T1, SdrCN2N3. Briefly: Fluorescence polarization inhibition by unlabeled peptides of SdrCN2N3 binding to fluorescein-labeled spNrxwt. More on the design: species or system S. aureus. As to conditions: 0.5 µM SdrCN2N3 with unlabeled peptide 3 hours, then 3 hours with 10 nM labeled spNrxwt, room temperature; mean±SD, three experiments.
Protocol: After 3 hours, the mixture was incubated for another 3 hours at room temperature in the dark with 10 nM fluorescein labeled spNrxwt peptide. Fluorescence polarization was determined as described above. The values represented here are the mean±SD of triplicates from three experiments.
To eliminate the possibility that the binding was dependent of the fluorescein label introduced in the wild-type peptide, we tested the ability of unlabeled spNrxwt and spNrxscr to inhibit the binding of SdrCN2N3 to fluorescein-labeled spNrxwt. Increasing concentrations of unlabeled peptides were incubated with SdrCN2N3 for three hours at room temperature before the fluorescent polarization experiment was performed.
For inhibition assays, 0.5 µM SdrC178–496 was first incubated with increasing concentrations of unlabeled Nrxwt or unlabeled Nrxscr for 3 hours at room temperature. The mixture was then incubated for 3 hours with fluorescein-labeled Nrxwt. The results presented represent the mean±SD of three independent experiments.

T1 sequence (O86487 178-496): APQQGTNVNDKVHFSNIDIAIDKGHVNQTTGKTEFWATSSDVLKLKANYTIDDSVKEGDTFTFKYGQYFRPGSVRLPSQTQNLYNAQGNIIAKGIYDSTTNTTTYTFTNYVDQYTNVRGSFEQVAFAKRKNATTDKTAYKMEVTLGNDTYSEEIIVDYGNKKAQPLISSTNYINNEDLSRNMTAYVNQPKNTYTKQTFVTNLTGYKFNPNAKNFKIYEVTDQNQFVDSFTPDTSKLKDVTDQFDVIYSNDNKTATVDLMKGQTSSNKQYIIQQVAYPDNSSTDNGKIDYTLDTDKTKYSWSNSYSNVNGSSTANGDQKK
Sequence of SdrC N2N3 domain, recombinant SdrC_(178-496) (O86487 178-496 limits assumed): as the sequence (O86487 178-496) above
Sequence of SdrC A-region, recombinant SdrC_(52-496) (O86487 52-496 limits assumed): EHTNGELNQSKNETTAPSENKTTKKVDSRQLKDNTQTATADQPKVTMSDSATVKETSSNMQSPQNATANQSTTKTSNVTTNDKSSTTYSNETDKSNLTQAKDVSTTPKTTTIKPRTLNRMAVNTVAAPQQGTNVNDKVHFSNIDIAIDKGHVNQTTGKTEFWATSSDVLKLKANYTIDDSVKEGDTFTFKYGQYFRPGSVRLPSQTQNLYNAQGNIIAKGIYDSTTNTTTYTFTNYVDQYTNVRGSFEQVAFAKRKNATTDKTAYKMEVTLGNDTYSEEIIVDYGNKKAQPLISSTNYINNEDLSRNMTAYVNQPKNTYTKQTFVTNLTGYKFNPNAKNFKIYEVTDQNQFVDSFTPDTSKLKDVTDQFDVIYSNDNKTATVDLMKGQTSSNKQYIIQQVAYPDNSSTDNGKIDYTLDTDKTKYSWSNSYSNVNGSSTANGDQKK

“SdrC N2N3 domain, recombinant SdrC_(178-496) (from UniProt O86487 178-496) (domain or fragment)”: the Kd turned out to be 126 nM in test [1] and 250 nM in test [2].
As to “SdrG: fibrinogen-binding MSCRAMM of Staphylococcus epidermidis, N2N3 domain used as bait”, the “Total bound TUs” value was 4×10^5 TUs in test [3] (panning 1), 3×10^7 TUs in test [3] (panning 2) and 2×10^8 TUs in test [3] (panning 3).
On to “SdrC A-region, recombinant SdrC_(52-496) (from UniProt O86487 52-496) (domain or fragment)”, for which the Kd in test [1] worked out at 185 nM.
In the case of HSHIKLHSHGHSFGHA [spNrxscr], the “inhibition of SdrCN2N3-Nrx47-255 binding” value in test [4] is reported as “did not observe an inhibition”. The “binding to SdrCN2N3 by fluorescence polarization” value on SdrCN2N3 [5] is recorded as “did not detect a significant binding”. Besides, the “inhibition of SdrCN2N3 binding to fluorescein-labeled spNrxwt” value on SdrCN2N3 [6] is given as “but not the spNrxscr inhibited”.
